# Results as given in patent publication US20090258385A1, “METHOD OF ANALYZING CELLS BY FLOW CYTOMETRY, USE OF AN ANTIOXIDANT AND/OR FREE RADICAL-SCAVENGING AGENT IN SUCH A METHOD AND INCUBATION BUFFER COMPRISING AN ANTIOXIDANT AND/OR FREE RADICAL-SCAVENGING AGENT” (Hopitaux de Paris, priority 2008, published 2009).
# Tests used:
# monocytes = system: monocytes
# Experimental: (§1) Aliquots of human peripheral blood (containing 500,000 leukocytes) were incubated in the lysis buffer and then washed three times with 1×PBS supplemented with 2.5% FBS. The cells (500,000) were then immuno-labeled with 5 μl of each of the desired antibodies conjugated either with the desired APC tandem or with APC alone in 100 μl of incubation buffer for 20 min at room temperature, and washed three times with the PBS/FBS solution and resuspended in 200 μl of PBS/FBS solution.
# (§2) The dead cells were labeled for their exclusion during analysis of the data acquired by flow cytometry using the intercalating agent 7-aminoactinomycin-D (7-AAD) from SIGMA-ALDRICH.
# [1] = system: neutrophilic polynuclear cells
# Experimental: as §1, §2
# [2] = system: lymphocytes labeled with anti-CD45 antibody conjugated with APC tandem; test: percentage of decoupling of APC tandem on immunolabeled lymphocytes by flow cytometry; assay type: cell-based, human
# Experimental: The positivity threshold was determined in the APC channel at the time T0 and related to the time T30. The percentage of “decoupled” cells was expressed as the ratio of the total number of both APC- and APC tandem-positive cells to the total APC tandem-positive lymphocytes.
# [3] = system: monocytes labeled with anti-CD45 antibody conjugated with APC tandem; test: percentage of decoupling of APC tandem on immunolabeled monocytes by flow cytometry; assay type: cell-based, human
# Excerpt: (§3) The terms “percentage of decoupling”, “% decoupling”, “% decoupling APC vs APC-Cy7”, “% decoupling APC vs APC-H7” are used in the preceding text and in the text which follows and in the accompanying figures to denote the ratio:
# (§4) [Number of cells which, although having been labeled with an APC tandem, emit fluorescence into the APC channel (and not into the channel of the APC tandem used)]/[total number of cells which have been labeled with the APC tandem, regardless of the channel into which they emit],
# (§5) this ratio being multiplied by 100.
# (§6) For each immunolabeling experiment, the cells were mixed and subjected to flow cytometry analysis on a Becton Dickinson FACSCanto II apparatus. From 10,000 to 50,000 events were acquired per test. The singlet cells were selected by a commonly used cell sorting procedure: intersection of the three windows (P1, P2 and P3) of the biparametric histograms.
# (§7) For each type of cells, the percentage of decoupling was calculated as previously described using the BD […] software.
# (§8) The results are represented in FIGS. 25 and 26.
# [4] = decoupling / signal impairment of APC tandem attached to beads (no cells)
# Excerpt: For that, they analyzed the stability of the APC tandem fluorochromes attached to lymphocytes and compared it to the stability of these same APC tandems attached to beads. This comparison makes it possible to determine whether or not it is the APC tandem which is degraded, regardless of the context in which it is used, or if the APC tandem is only degraded in the presence of cells.
# The beads used in these experiments were beads Compbeads® from Becton Dickinson.
# The lymphocytes, like the beads, were labeled with anti-CD45 antibodies conjugated with the APC-Cy7 tandem fluorochrome or with the APC-H7 tandem fluorochrome.
# [5] = system: neutrophilic polynuclear cells labeled with anti-CD45 antibody conjugated with APC tandem; test: percentage of decoupling of APC tandem on immunolabeled neutrophilic polynuclear cells by flow cytometry; assay type: cell-based, human
# Excerpt: as §3, §4, §5, §6, §7, §8
# cells = test: toxicity to cells at the concentrations used; assay type: cell-based
# lymphocytes = test: viability and morphology of lymphocytes; assay type: cell-based, human
# [6] = neutrophilic polynuclear cells, H2O2
structure (smiles),measurement,setting,value
"[N-]=[N+]=[N-] [NaN3, sodium azide]",effect on cell viability,monocytes; NaN3,without affecting cell viability
same,effect on cell viability,"[1]; neutrophilic polynuclear leukocytes, NaN3",without affecting cell viability
"OO [H2O2, hydrogen peroxide]",effect on percentage of decoupling,"[2]; anti-CD45 APC-Cy7, 0.01 mM H2O2, 20 to 60 minutes",does not modify
same,effect on percentage of decoupling,"[2]; anti-CD45 APC-Cy7, 0.1 mM H2O2, 20 to 60 minutes",increased
same,effect on viability of the cells,monocytes; H2O2,without any effect on the viability
same,effect on viability of the cells,[1]; [6],without any effect on the viability
same,effect on decoupling compared with lymphocytes,[3]; H2O2,comparable role
same,decoupling of antibodies conjugated with APC-Cy7 attached to beads,"[4]; beads, over time, H2O2",could induce the decoupling
same,effect on decoupling compared with lymphocytes,[5]; [6],comparable role
"O=C1O[C@H]([C@@H](O)CO)C(O)=C1O [vitamin C, L-ascorbic acid]",toxicity to cells,cells,not toxic to cells
same,effect on percentage of decoupling over time,"[2]; anti-CD45 APC-Cy7, 1 mM vitamin C, room temperature, monitored 1 hour",strongly inhibits
same,effect on percentage of decoupling,[2]; vitamin C 0.1 mM,only a reduced effect
same,concentration above which viability and morphology are modified,monocytes,> 10 mM
same,concentration above which cells begin to undergo a decrease in viability,[1]; neutrophilic polynuclear cells,Above 10 mM
same,concentration above which cells begin to undergo morphological impairment,[1]; neutrophilic polynuclear cells,Above 4 mM
same,concentration at which a sufficient decrease of the percentage of decoupling appears,[3],1 mM
same,concentration up to which the decrease of decoupling exists,[3],≤ 10 mM
same,effect on impairment of the APC tandem signal caused by H2O2,"[4]; beads Compbeads, H2O2 0 to 1 mM, 1 mM vitamin C",blocks the impairment of the signal
same,concentration above which morphology and viability are modified,lymphocytes,above 10 mM
same,concentration at which a sufficient decrease of the percentage of decoupling is obtained,[5]; neutrophilic polynuclear cells,0.25 mM
same,concentration up to which the decrease of decoupling exists,[5]; neutrophilic polynuclear cells,≤ 10 mM
same,effect on percentage of decoupling over time,"[5]; neutrophilic polynuclear leukocytes, anti-CD45 APC-Cy7, 1 mM vitamin C, room temperature, monitored 1 hour",strongly inhibits
